{
  "source": "patent US12168000B2",
  "about": "“Methods of treating pain” (Scilex Holding Company, priority 2020, dated 2024)",
  "origin": "cited, not measured here",
  "key": {"[1]": {"conditions": "hydrophobic and highly permeable drug"}, "[2]": {"conditions": "upon oral administration"}},
  "data": [
    {"compound": "Cc1ccc(-c2cc(C(F)(F)F)nn2-c2ccc(S(N)(=O)=O)cc2)cc1", "note": "[Celecoxib, 4-[5-(4-methylphenyl)-3-(trifluoromethyl)-1H-pyrazol-1-yl] benzenesulfonamide]", "values": [
      {"measurement": "class of the biopharmaceutics classification system", "setting": "[1]", "result": "class II"},
      {"measurement": "time for peak plasma concentrations", "setting": "[2]", "result": "approximately 3.0 hours"}
    ]}
  ]
}
